In article PMC4877006, “From Binding-Induced Dynamic Effects in SH3 Structures to Evolutionary Conserved Sectors” (PLoS Computational Biology, 2016):

What was measured:
Set-up in all cases: species or system chicken
c-Src R73E (SH3 domain) = target: T1, c-Src R73E (SH3 domain) (Gallus gallus, UniProt P00523, Q128E); assay: ITC binding of peptide RLP2 to c-Src SH3 R73E; details: 25 °C
T1 construct: The plasmid pET15b containing the chicken c-Src-SH3 domain gene; made in house
Method: (§1) Differential Scanning Calorimetry (DSC) was used to evaluate the effect of the mutation on the conformational equilibrium and stability of the protein. Isothermal Titration Calorimetry (ITC) measured the binding energetics of all mutants to the RLP2 ligand at 25°C. The results for the 15 mutants studied are summarized in Figs 1D, S1 and S2, as well as S3 and S4 Tables.
(§2) The plasmid pET15b containing the chicken c-Src-SH3 domain gene was a generous gift from Dr. E. Freire (Johns Hopkins University). The genes encoding for the c-Src-SH3 mutants were obtained by site directed mutagenesis using the QuickChange Site-Directed-Mutagenesis Kit (Stratagene) taking the WT c-Src-SH3 plasmid as template or purchased from Top Gene Technologies, Canada. WT and mutants of c-Src-SH3 domain were expressed and purified as previously described for the wild type protein [68]. The peptide RLP2 (Ac-RALPPLPRY-NH2) was bought from Peptide 2.0 (Piscataway, USA) and JPT (Berlin, Germany) with a purity > 95%. Protein concentration was determined by absorbance at 280 nm using an extinction coefficient of 16500 M^-1·cm^-1. Peptide concentration was determined by absorbance at 274 nm using an extinction coefficient of 1400 M^-1·cm^-1.
(§3) Isothermal titration calorimetry was performed using a high-precision VP titration calorimetric system (Microcal Inc., Northampton, MA) as previously described. […] Titrations were made using a profile of injection volumes from 3 μL to 20 μL to define the titration curve more clearly. The heat produced by the binding reaction between the Src-SH3 domain and the peptide ligand was calculated as the difference between the heat of reaction and the corresponding heat of dilution, as obtained from independent titrations of the peptide ligand into the buffer. The resulting binding isotherms were analyzed by non-linear least-square fittings of the experimental data to a model corresponding to a single set of identical sites, as described before.
(§4) Supplementary file pcbi.1004938.s008.doc: S3 Table Analysis of Src SH3 binding affinities through ITC. Thermodynamic binding affinity to peptide RLP2. A * indicates experiment made by fluorescence titration only. (DOC) Click here for additional data file.

c-Src F34I (SH3 domain) = target: T2, c-Src F34I (SH3 domain) (Gallus gallus, UniProt P00523, F102I/Q128R); assay: ITC binding of peptide RLP2 to c-Src SH3 F34I; details: 25 °C
T2 construct: The plasmid pET15b containing the chicken c-Src-SH3 domain gene; made in house
Method: as §1, §2, §3, §4

c- Src W56L (SH3 domain) = target: T3, c- Src W56L (SH3 domain) (Gallus gallus, UniProt P00523, Q128R/W119L); assay: ITC binding of peptide RLP2 to c-Src SH3 W56L; details: 25 °C
T3 construct: The plasmid pET15b containing the chicken c-Src-SH3 domain gene; made in house
Method: as §1, §2, §3, §4

c-Src L40I (SH3 domain) = target: T4, c-Src L40I (SH3 domain) (Gallus gallus, UniProt P00523, L108I); assay: ITC binding of peptide RLP2 to c-Src SH3 L40I; details: 25 °C
T4 construct: The plasmid pET15b containing the chicken c-Src-SH3 domain gene; made in house
Method: as §1, §2, §3, §4

c-Src L40V (SH3 domain) = assay: ITC binding of peptide RLP2 to c-Src SH3 L40V; details: 25 °C
Method: as §1, §2, §3, §4

c- Src R73Q (SH3 domain) = target: T5, c- Src R73Q (SH3 domain) (Gallus gallus, UniProt P00523); assay: ITC binding of peptide RLP2 to c-Src SH3 R73Q; details: 25 °C
T5 construct: The plasmid pET15b containing the chicken c-Src-SH3 domain gene; made in house
Method: as §1, §2, §3, §4

c-Src H59R (SH3 domain) = target: T6, c-Src H59R (SH3 domain) (Gallus gallus, UniProt P00523, H122R/Q128R); assay: ITC binding of peptide RLP2 to c-Src SH3 H59R; details: 25 °C
T6 construct: The plasmid pET15b containing the chicken c-Src-SH3 domain gene; made in house
Method: as §1, §2, §3, §4

c-Src S26A (SH3 domain) = assay: ITC binding of peptide RLP2 to c-Src SH3 S26A; details: 25 °C, binding of RLP2, S26A relative to wt
Method: as §1, §2, §3, §4

[1] = binding of RLP2, R73E relative to wt
[2] = binding of RLP2, F34I relative to wt
[3] = binding of RLP2, W56L relative to wt
[4] = binding of RLP2, L40I relative to wt
[5] = binding of RLP2, L40V relative to wt
[6] = binding of RLP2, R73Q relative to wt
[7] = binding of RLP2, H59R relative to wt

Ac-RALPPLPRY-NH2 [RLP2, Ac-RALPPLPRY-NH2]
∆∆Gb (25 ºC) (c-Src R73E (SH3 domain); [1]): -0.24 ± 0.04 kcal/mol | ∆∆Hb (25 ºC) (c-Src R73E (SH3 domain); [1]): -0.1 ± 0.3 kcal/mol | ∆Gb (25 ºC) (c-Src R73E (SH3 domain); ITC, binding of RLP2, R73E): -6.87 ± 0.03 kcal/mol | ∆Hb (25 ºC) (c-Src R73E (SH3 domain); ITC, binding of RLP2, R73E): -14.3 ± 0.2 kcal/mol | Kd (c-Src R73E (SH3 domain); ITC, RLP2 about 2 mM titrated into SH3 (50-122 μM), R73E (control), read-out: Kd (25 ºC)): 9.3 ± 0.5 µM | ∆∆Gb (25 ºC) (c-Src F34I (SH3 domain); [2]): 0.79 ± 0.03 kcal/mol | ∆∆Hb (25 ºC) (c-Src F34I (SH3 domain); [2]): 0.6 ± 0.3 kcal/mol | ∆Gb (25 ºC) (c-Src F34I (SH3 domain); ITC, binding of RLP2, F34I): -5.84 ± 0.01 kcal/mol | ∆Hb (25 ºC) (c-Src F34I (SH3 domain); ITC, binding of RLP2, F34I): -13.6 ± 0.3 kcal/mol | Kd (c-Src F34I (SH3 domain); ITC, RLP2 about 2 mM titrated into SH3 (50-122 μM), F34I, read-out: Kd (25 ºC)): 52.6 ± 1.2 µM | ∆∆Gb (25 ºC) (c- Src W56L (SH3 domain); [3]): 0.98 ± 0.03 kcal/mol | ∆∆Hb (25 ºC) (c- Src W56L (SH3 domain); [3]): 2.4 ± 0.2 kcal/mol | ∆Gb (25 ºC) (c- Src W56L (SH3 domain); ITC, binding of RLP2, W56L): -5.65 ± 0.01 kcal/mol | ∆Hb (25 ºC) (c- Src W56L (SH3 domain); ITC, binding of RLP2, W56L): -11.8 ± 0.1 kcal/mol | Kd (c- Src W56L (SH3 domain); ITC, RLP2 about 2 mM titrated into SH3 (50-122 μM), W56L, read-out: Kd (25 ºC)): 72.5 ± 1.4 µM | ∆∆Gb (25 ºC) (c-Src L40I (SH3 domain); [4]): 0.24 ± 0.04 kcal/mol | ∆∆Hb (25 ºC) (c-Src L40I (SH3 domain); [4]): 0.4 ± 0.4 kcal/mol | ∆Gb (25 ºC) (c-Src L40I (SH3 domain); ITC, binding of RLP2, L40I): -6.39 ± 0.02 kcal/mol | ∆Hb (25 ºC) (c-Src L40I (SH3 domain); ITC, binding of RLP2, L40I): -13.8 ± 0.3 kcal/mol | Kd (c-Src L40I (SH3 domain); ITC, RLP2 about 2 mM titrated into SH3 (50-122 μM), L40I, read-out: Kd (25 ºC)): 20.6 ± 0.6 µM | ∆∆Gb (25 ºC) (c-Src L40V (SH3 domain); [5]): 0.24 ± 0.04 kcal/mol | ∆∆Hb (25 ºC) (c-Src L40V (SH3 domain); [5]): -0.6 ± 0.3 kcal/mol | ∆Gb (25 ºC) (c-Src L40V (SH3 domain); ITC, binding of RLP2, L40V): -6.39 ± 0.02 kcal/mol | ∆Hb (25 ºC) (c-Src L40V (SH3 domain); ITC, binding of RLP2, L40V): -14.8 ± 0.2 kcal/mol | Kd (c-Src L40V (SH3 domain); ITC, RLP2 about 2 mM titrated into SH3 (50-122 μM), L40V, read-out: Kd (25 ºC)): 20.5 ± 0.6 µM | ∆∆Gb (25 ºC) (c- Src R73Q (SH3 domain); [6]): -0.11 ± 0.04 kcal/mol | ∆∆Hb (25 ºC) (c- Src R73Q (SH3 domain); [6]): -0.4 ± 0.2 kcal/mol | ∆Gb (25 ºC) (c- Src R73Q (SH3 domain); ITC, binding of RLP2, R73Q): -6.74 ± 0.02 kcal/mol | ∆Hb (25 ºC) (c- Src R73Q (SH3 domain); ITC, binding of RLP2, R73Q): -14.6 ± 0.1 kcal/mol | Kd (c- Src R73Q (SH3 domain); ITC, RLP2 about 2 mM titrated into SH3 (50-122 μM), R73Q (control), read-out: Kd (25 ºC)): 11.4 ± 0.3 µM | ∆∆Gb (25 ºC) (c-Src H59R (SH3 domain); [7]): -0.13 ± 0.03 kcal/mol | ∆∆Hb (25 ºC) (c-Src H59R (SH3 domain); [7]): -0.1 ± 0.3 kcal/mol | ∆Gb (25 ºC) (c-Src H59R (SH3 domain); ITC, binding of RLP2, H59R): -6.76 ± 0.01 kcal/mol | ∆Hb (25 ºC) (c-Src H59R (SH3 domain); ITC, binding of RLP2, H59R): -14.3 ± 0.2 kcal/mol | Kd (c-Src H59R (SH3 domain); ITC, RLP2 about 2 mM titrated into SH3 (50-122 μM), H59R, read-out: Kd (25 ºC)): 11 ± 0.2 µM | ∆∆Gb (25 ºC) (c-Src S26A (SH3 domain)): 0.18 ± 0.06 kcal/mol
